# Measurements published in patent publication US20150313921A1, “Cancer Treatment Methods” (PLEDPHARMA AB, priority 2012, published 2015).
# Read-outs that look alike come from different tables or passages of the source.
# Key:
# [1] = tested on: ovarian carcinoma A2780 cells; assay: MTT viability assay, A2780 cells; details: for cytotoxic effect in A2780 cells: alone (MnDPDP: alone or with Dx 3 nM or 30 nM), 48 h, MTT; for EC50: Homo sapiens, A2780, 48 h
# Method: A2780 cells were co-incubated with MnDPDP, DPDP, and/or Dx. The viability of cells was measured using the methylthiazoletetrazolium (MTT) assay. Briefly, 8000 cells were seeded per well on a 96-well plate and grown overnight under standards. Cells were then exposed for 48 hours to various concentrations of MnDPDP, DPDP, and/or Dx at 37° C. The viability of the cells was then assessed by adding 5 mg/ml MTT to a final concentration of 0.5 mg/ml and incubating cells for a further 4 hours at 37° C. The blue formazan that is formed by mitochondrial dehydrogenases of viable cells was then dissolved overnight at 37° C. by adding 10% SDS and 10 mM HCl to a final concentration of 5% SDS and 5 mM HCl. Finally, the absorbance of the solution was read at 570 nm with a reference at 670 nm in a microplate reader (SpectraMax 340; Molecular Devices, Sunnyvale, Calif.) connected to an Apple Macintosh computer running the program Softmax Pro V1.2.0 (Molecular Devices). Viability is expressed as percent absorbance (A570 nm-A670 nm) relative to the untreated control cells. All values were given as arithmetic means±SD for in vitro cell MTT viability data. In vitro responses of Dx, MnDPDP, and/or DPDP with regard to viability are presented as concentration-effect curves. […] From this analysis, the low and Q7 high pD2 values (negative log of the concentration of Dx that produces half of its maximal inhibition in the two phases, −logIC50) were calculated.
# [2] = Mn2+ versus Zn2+
# [3] = tested on: human non-small cell lung cancer (NSCLC) U1810 cells; assay: MTT viability assay, U1810 cells; format: cell-based; details: for IC50: 48 h exposure, read-out: IC50 (concentration causing 50% inhibition of viability)
# Method: The viability of cells was measured using the MTT assay. […] Cells were then exposed for 48 h to 1-1,000 μM DPDP (lot #RDL02090206) or MnDPDP (lot #02090106). […] The viability of U1810 cells in the presence of increasing concentrations of DPDP or MnDPDP is presented as concentration-response curves (mean±S.D.). The individual curves were fitted to the sigmoidal normalized response logistic equation (Graphpad Prism, version 5.02). From this analysis the concentrations causing 50% inhibition (IC50) of the test substances were calculated.
# [4] = tested on: infarct size; details: pigs; MnPLED 3 μmol/kg; cited from earlier work
# [5] = pigs, ten minutes after injection; cited from earlier work
# [6] = cited from earlier work
# [7] = cited from earlier work; remark: listed apart in the source
smiles,measurement,setting,value
"Cc1ncc(COP(=O)(O)O)c(CN(CCN(CC(=O)O)Cc2c(COP(=O)(O)O)cnc(C)c2O)CC(=O)O)c1O [DPDP, N,N′-bis-(pyridoxal-5-phosphate)-ethylenediamine-N,N′-diacetic acid]",cancer cells killed,"[1]; 30 μM, A2780 cells",approximately 50%
same,cancer cells killed,"[1]; 100 μM, A2780 cells",killing almost all cells
same,additive effect to the cytotoxic effect of Dx alone,"[1]; DPDP 10 μM or 30 μM added to Dx, A2780 cells",did not reveal any obvious additive effect
same,cytotoxic effect in A2780 cells,[1],had cytotoxic effects
same,Mn2+ dissociates more readily than Zn2+ (fold),[2],about 1000 times
same,IC50 ratio between MnDPDP and DPDP (times more potent than MnDPDP),[3]; 48 h,17 times
same,IC50,[3],52.8 µM
Cc1[nH+]cc(COP(=O)([O-])[O-])c(CN(CCN(CC(=O)[O-])Cc2c(COP(=O)([O-])O)c[nH+]c(C)c2O)CC(=O)[O-])c1O.[Mn].[Na+].[Na+].[Na+] [MnDPDP],cytotoxic effect in A2780 cells,[1],did not have any obvious cytotoxic effects
same,effect on infarct size,[4],did not reduce the infarct size
same,IC50,[3],437 µM
same,replacement of manganese with zinc,[5],all manganese has been replaced with zinc
same,administered manganese released,[6]; intravenous injection into humans,about 80%
same,injected manganese that stays bound to the chelator,"[6]; man, for a considerable amount of time",about 30%
same,injected MnDPDP transformed into MnPLED,[6]; shortly after intravenous injection in man,about 30%
"Cc1ncc(CO)c(CN(CCN(CC(=O)O)Cc2c(CO)cnc(C)c2O)CC(=O)O)c1O [PLED, N,N′-dipyridoxyl ethylenediamine-N,N′-diacetic acid]",Mn2+ dissociates more readily than Zn2+ (fold),[2],about 1000 times
same,stability constant with Mn2+,[7]; Mn2+,12.56 logK
same,stability constant with Zn2+,[7]; Zn2+,16.68 logK
"COc1cccc2c1C(=O)c1c(O)c3c(c(O)c1C2=O)C[C@@](O)(C(=O)CO)C[C@@H]3O[C@H]1C[C@H](N)[C@H](O)[C@H](C)O1 [Dx, Doxorubicin, reference compound]",EC50,"[1]; read-out: pD2 (-logEC50), first phase (high pD2) of biphasic curve (converted)",0.00545 µM
same,EC50,"[1]; read-out: pD2 (-logEC50), second phase (low pD2) of biphasic curve (converted)",0.225 µM
